Reference: ChEMBL document CHEMBL1150131, “New cytotoxic bis 5-alkylresorcinol derivatives from the leaves of Oncostemon bojerianum from the Madagascar rainforest” (J Nat Prod, 2002)
In brackets after ≈: the same amount, converted by molar mass.

tested on: A2780; assay: Cytotoxicity against human A2780 cells; type: functional, cell-based

`Oc1cc(O)cc(CCCCCCCCC/C=C\CCCCCCCCCc2cc(O)cc(O)c2)c1` [ONCOSTEMONOL G] and `Oc1cc(O)cc(CCCCCCC/C=C\CCCCCCCCCc2cc(O)cc(O)c2)c1` [ONCOSTEMONOL H] are within 1.5-fold of each other in IC50: 10.2 µg/mL (≈ 20.5 µM) for the first, 9.4 µg/mL (≈ 20.1 µM) for the second.

`Oc1cc(O)cc(CCCCCCC/C=C\CCCCCCCc2cc(O)cc(O)c2)c1` and `Oc1cc(O)cc(CCCCC/C=C\CCCCCCCc2cc(O)cc(O)c2)c1` are within 1.5-fold of each other in IC50: 10.2 µg/mL (≈ 23.1 µM) for the first, 9.8 µg/mL (≈ 23.8 µM) for the second.

`COc1cc(O)cc(CCCCCCC/C=C\CCCCCCCc2cc(O)cc(O)c2)c1` [ONCOSTEMONOL D] and `CC(=O)Oc1cc(O)cc(CCCCCCC/C=C\CCCCCCCc2cc(O)cc(O)c2)c1` [ONCOSTEMONOL B] are within 1.5-fold of each other in IC50: 10 µg/mL (≈ 22 µM) for the first, 10.2 µg/mL (≈ 21.1 µM) for the second.

`CC(=O)Oc1cc(O)cc(CCCCCCC/C=C\CCCCCCCc2cc(O)cc(OC(C)=O)c2)c1` [ONCOSTEMONOL A] and `CC(=O)Oc1cc(O)cc(CCCCCCCCCCCCCCCCc2cc(O)cc(OC(C)=O)c2)c1` [ONCOSTEMONOL F] are within 1.5-fold of each other in IC50: 9.4 µg/mL (≈ 17.9 µM) for the first, 9.5 µg/mL (≈ 18 µM) for the second.

`COc1cc(O)cc(CCCCCCC/C=C\CCCCCCCc2cc(OC)cc(OC)c2)c1` [ONCOSTEMONOL E] and `COc1cc(O)cc(CCCCCCC/C=C\CCCCCCCc2cc(O)cc(OC)c2)c1` [ONCOSTEMONOL C] are the same in IC50: 9.8 µg/mL (≈ 20.3 µM) for the first, 9.8 µg/mL (≈ 20.9 µM) for the second.
